Patent US8354447B2, “mGLU receptors antagonists for treating disorders associated with mGLU receptors including addiction and depression” (The Scripps Research Institute, priority 2002, dated 2013)
Several values for one entry are separate records, joined by “and”; a condition that tells them apart may be missing. Equal entries are not always repeated. Where two headings read alike, the source gives them in different places.

Experiments:
[1] = tested on: male Wistar rats; settings: nicotine 0.25 mg/kg SC
Source text: Trials began with an electrical stimulus followed by a 7.5-s response window within which the animal could make a response to receive a second contingent stimulus identical to the initial noncontingent stimulus. A response during this 7.5-s window was considered a positive response, whereas the lack of a response was considered a negative response. Additional responses during a 2-s period immediately following a positive response had no consequence. The intertrial interval (ITI) that followed either a positive response or the end of the response window (in the case of a negative response) ranged from 7.5 to 12.5 s with an average duration of 10 s. […] Subjects then were tested on a current-threshold procedure in which stimulus intensities were varied during four alternating descending and ascending series with a step size of 5 mA. Blocks of three trials were offered at each current step with the starting current of the first descending series set at 30-40 mA above the subjects' individual baseline thresholds estimated at the end of preliminary training. […] An ascending series was terminated after two consecutive blocks of trials during which the animal made positive responses on at least two out of the three trials or after 15 successive increments were presented. The mean of the four current thresholds from the alternating series was defined as the subject's ICSS threshold for that session. A series was terminated after either 15 stimulus increments (or decrements) had occurred, or after the determination of the threshold for the series (see below). Each test session typically lasted 30 min.

[2] = tested on: male Wistar rats; assay: ICSS thresholds during spontaneous nicotine withdrawal; assay type: in vivo, rat
Source text: (§1) Animals were trained to respond according to a modification of the discrete-trial current-threshold procedure of Kornetsky and Esposito (Fed Proc 38:2473-2476, 1979), which has been described in detail previously (Markou and Koob, 1992 Physiol Behav 51:111-119). Briefly, a trial was initiated by the delivery of a non-contingent electrical stimulus. […] The current intensity delivered was adjusted for each animal and typically ranged from 50 to 200 μA. […] After a variable inter-trial interval (7.5-12.5 sec, average of 10 sec), another trial was initiated with the delivery of a non-contingent electrical stimulus. […] Responding during the inter-trial interval delayed the onset of the next trial by 12.5 sec. Current levels were varied in alternating descending and ascending series. A set of three trials was presented for each current intensity. Current intensities were altered in 5 μA steps. In each testing session, four alternating descending-ascending series were presented. […] The overall threshold of the session was defined as the mean of the thresholds for the four individual series. Each testing session was ˜30 min in duration. The latency between the onset of the non-contingent stimulus and a positive response was recorded as the response latency. The response latency for each test session was defined as the mean response latency of all trials during which a positive response occurred. After establishment of stable ICSS reward thresholds, rats were tested in the ICSS procedure once daily except for the spontaneous nicotine withdrawal experiment when rats were tested at time-points according to the experimental design.
Osmotic mini-pumps were surgically removed from nicotine-treated rats (n=15) (defined as rats having been prepared with mini-pumps delivering 3.16 mg/kg/day nicotine free-base for at least seven days) or corresponding control rats (n=17; rats prepared with vehicle-containing mini-pumps). All rats were then tested in the ICSS procedure at 12, 18, 24, 36, 48 and 72 hr after the removal of osmotic mini-pumps. These time points were chosen based on the time course of threshold elevations previously observed during spontaneous nicotine withdrawal after removal of nicotine-delivering osmotic mini-pumps (Harrison et al., 2001, Neuropsychopharmacology 25:55-71; K.L.). […] Thirty min before being tested at the 18 h time-point, one group of nicotine withdrawing and one group of control rats were injected with LY341495 (1 mg/kg); the remaining rats were injected with vehicle.

[3] = tested on: male Wistar rats; assay: Nicotine self-administration and food-maintained responding on a fixed ratio schedule in rats; assay type: in vivo, rat
Procedure: Two additional groups of rats were allowed to respond for food (45 mg Noyes food pellet) under a FR5 TO20 sec (n=10), and a FR5 TO210 sec (n=10) schedule. The two different schedules were employed to allow assessment of the effects of MPEP on responding for food under a reinforcement schedule (FR5 TO20 sec) identical to that used for nicotine, and under a reinforcement schedule (FR5 TO210) that equated response rates for food to those seen for nicotine. […] All test sessions were conducted for one hour per day, five days per week.
After acquiring stable nicotine self-administration at either 0.01 mg/kg/infusion (n=9) or 0.03 mg/kg/infusion (n=9), or stable food-maintained responding on the FR5 TO 20 sec schedule (n=10) or the FR5 TO210 sec schedule (n=10), drug testing was initiated. MPEP (0, 1, 3 and 9 mg/kg) was administered intraperitoneally 30 minutes before the session, according to a Latin Square design, with at least six days elapsing between each test dose.

[4] = tested on: male Wistar rats
Source text: as §1
Systemic administration experiments. These experiments investigated whether nicotine withdrawal, as measured by elevations in ICSS thresholds, could be precipitated in nicotine-treated rats by systemic administration of an agonist at mGluII receptors (LY314582), an agonist at GABAB receptors (CGP44532), or antagonists at mGlu5 (MPEP), NMDA (MK-801) or AMPA/Kainate (NBQX) glutamate receptors. For each drug tested, rats were trained in the ICSS paradigm until stable baseline responding was achieved, defined as ≦10% variation in thresholds for 3 consecutive days and requiring approximately 14 days of daily testing. […] One group was then prepared with subcutaneous osmotic mini-pumps delivering vehicle and the second group with mini-pumps delivering 9 mg/kg/day nicotine hydrogen tartrate (3.16 mg/kg/day nicotine free base). There was a minimum seven-day interval after mini-pump implantation, during which ICSS reward thresholds continued to be measured daily, before the effect of any systemically administered drug on reward thresholds was evaluated.

[5] = tested on: rats; settings: 2.5-10 mg/kg i.p.; cited from earlier work
[6] = tested on: Wistar rats; assay: Nicotine self-administration under a fixed ratio schedule (LY341495, LY341495 and MPEP); settings: MPEP 1 mg/kg alone
[7] = tested on: Wistar rats; assay: Cocaine-induced lowering of ICSS thresholds; assay type: in vivo, rat
[8] = MPEP 0.01 mg/kg i.p., Nicotine-treated rats
[9] = MPEP 0.01 mg/kg i.p., Vehicle-treated rats
[10] = MPEP 0.05 mg/kg i.p., Nicotine-treated rats
[11] = MPEP 0.05 mg/kg i.p., Vehicle-treated rats
[12] = MPEP 0.1 mg/kg i.p., Nicotine-treated rats
[13] = MPEP 0.1 mg/kg i.p., Vehicle-treated rats
[14] = MPEP 0.5 mg/kg i.p., Nicotine-treated rats
[15] = MPEP 0.5 mg/kg i.p., Vehicle-treated rats
[16] = MPEP 1 mg/kg i.p., Nicotine-treated rats
[17] = MPEP 1 mg/kg i.p., Vehicle-treated rats
[18] = MPEP 2 mg/kg i.p., Nicotine-treated rats
[19] = MPEP 2 mg/kg i.p., Vehicle-treated rats
[20] = MPEP 3 mg/kg i.p., Nicotine-treated rats
[21] = MPEP 3 mg/kg i.p., Vehicle-treated rats
[22] = MPEP 3 mg/kg, 10, 40, 70 and 100 min

CN1CCCC1c1cccnc1 (single isomer, unassigned; (-)) [nicotine, (−)-1-methyl-2-(3-pyridyl) pyrrolidine]
brain reward thresholds [1]: resulted in lowering of brain reward thresholds
ICSS reward threshold elevation ([2]; 12 h after removal of mini-pumps delivering 3.16 mg/kg/day nicotine free-base, two groups before treatment (n=8, n=7)): 117.67±3.1% and 119.93±3.5%
ICSS Thresholds ([2]; withdrawal from chronic nicotine treatment): produced robust ICSS threshold elevations compared to control rats

Cc1cccc(C#Cc2ccccc2)n1 [MPEP, 2-methyl-6-(phenylethynyl)-pyridine]
Number of reinforcers earned during the entire 1 hour session ([3]; 1 mg/kg MPEP, 0.01 mg/kg/inf nic, FR5 TO20 sec): 21 ± 3.1
Number of reinforcers earned during the entire 1 hour session ([3]; 1 mg/kg MPEP, 0.03 mg/kg/inf nic, FR5 TO20 sec): 13 ± 1.9
Number of reinforcers earned during the entire 1 hour session ([3]; 1 mg/kg MPEP, 45 mg food pellet, FR5 TO20 sec): 131.3 ± 8.2
Number of reinforcers earned during the entire 1 hour session ([3]; 1 mg/kg MPEP, 45 mg food pellet, FR5 TO210 sec): 16.3 ± 0.3
Number of reinforcers earned during the entire 1 hour session ([3]; 3 mg/kg MPEP, 0.01 mg/kg/inf nic, FR5 TO20 sec): 11 ± 2.7
Number of reinforcers earned during the entire 1 hour session ([3]; 3 mg/kg MPEP, 0.03 mg/kg/inf nic, FR5 TO20 sec): 11.4 ± 1.2
Number of reinforcers earned during the entire 1 hour session ([3]; 3 mg/kg MPEP, 45 mg food pellet, FR5 TO20 sec): 122.2 ± 7.4
Number of reinforcers earned during the entire 1 hour session ([3]; 3 mg/kg MPEP, 45 mg food pellet, FR5 TO210 sec): 15.2 ± 0.5
Number of reinforcers earned during the entire 1 hour session ([3]; 9 mg/kg MPEP, 0.01 mg/kg/inf nic, FR5 TO20 sec): 9.1 ± 3.0
Number of reinforcers earned during the entire 1 hour session ([3]; 9 mg/kg MPEP, 0.03 mg/kg/inf nic, FR5 TO20 sec): 4.8 ± 1.5
Number of reinforcers earned during the entire 1 hour session ([3]; 9 mg/kg MPEP, 45 mg food pellet, FR5 TO20 sec): 109 ± 12.98
Number of reinforcers earned during the entire 1 hour session ([3]; 9 mg/kg MPEP, 45 mg food pellet, FR5 TO210 sec): 15.2 ± 0.6
nicotine self-administration ([3]; 3 and 9 mg/kg MPEP, 0.01 mg/kg/infusion nicotine): significantly reduced self-administration of the 0.01 mg/kg/infusion nicotine dose relative to the vehicle condition
nicotine self-administration ([3]; MPEP 1, 3, 9 mg/kg, 0.03 mg/kg/inf nicotine): decreasing self-administration of the 0.03 mg/kg/inf dose only at 9 mg/kg
inactive lever presses ([3]; MPEP 1-9 mg/kg): no effect of MPEP on inactive lever presses for any of the reinforcers
ICSS Thresholds [4, 8]: 93.86 ± 6.0 percentage of baseline
ICSS response Latencies [4, 8]: 101.50 percentage of baseline
ICSS Thresholds [4, 9]: 98.75 ± 3.5 percentage of baseline
ICSS response Latencies [4, 9]: 99.75 ± 3.4 percentage of baseline
ICSS Thresholds [4, 10]: 94.11 ± 2.6 percentage of baseline
ICSS response Latencies [4, 10]: 103.48 percentage of baseline
ICSS Thresholds [4, 11]: 101.27 ± 4.1 percentage of baseline
ICSS response Latencies [4, 11]: 104.87 ± 3.3 percentage of baseline
ICSS Thresholds [4, 12]: 103.84 ± 1.2 percentage of baseline
ICSS response Latencies [4, 12]: 102.54 percentage of baseline
ICSS Thresholds [4, 13]: 105.13 ± 3.2 percentage of baseline
ICSS response Latencies [4, 13]: 105.13 ± 4.8 percentage of baseline
ICSS Thresholds [4, 14]: 104.02 ± 2.2 percentage of baseline
ICSS response Latencies [4, 14]: 99.47 percentage of baseline
ICSS Thresholds [4, 15]: 103.01 ± 2.7 percentage of baseline
ICSS response Latencies [4, 15]: 103.20 ± 4.4 percentage of baseline
ICSS Thresholds [4, 16]: 105.81 ± 3.3 percentage of baseline
ICSS response Latencies [4, 16]: 99.12 percentage of baseline
ICSS Thresholds [4, 17]: 103.70 ± 3.0 percentage of baseline
ICSS response Latencies [4, 17]: 100.72 ± 2.1 percentage of baseline
ICSS Thresholds [4, 18]: 121.17 ± 6.2 percentage of baseline
ICSS response Latencies [4, 18]: 101.31 percentage of baseline
ICSS Thresholds [4, 19]: 111.21 ± 2.3 percentage of baseline
ICSS response Latencies [4, 19]: 107.60 ± 2.6 percentage of baseline
ICSS Thresholds [4, 20]: 119.11 ± 5.5 percentage of baseline
ICSS response Latencies [4, 20]: 102.22 percentage of baseline
ICSS Thresholds [4, 21]: 111.52 ± 4.8 percentage of baseline
ICSS response Latencies [4, 21]: 103.58 ± 2.3 percentage of baseline
ICSS reward thresholds ([4]; MPEP 0.01-0.1 mg/kg, nicotine-treated or control rats): did not affect reward thresholds
ICSS reward thresholds ([4]; MPEP 0.5-3 mg/kg): elevated reward thresholds in nicotine-treated and control rats
ICSS response Latencies ([4]; MPEP 0.5-3 mg/kg, either group): had no effect on response latencies
exploratory locomotor activity [5]: had no effect on exploratory locomotor activity in rats
cocaine or nicotine self-administration [6]: has no effects on cocaine or nicotine self-administration
duration of cocaine-induced lowering of ICSS thresholds ([7]; MPEP 3 mg/kg): did not attenuate the duration of time that cocaine lowered ICSS thresholds
ICSS Thresholds [7, 22]: had no effect on ICSS thresholds at any time-point
ICSS response Latencies [7, 22]: had no effect on response latencies at any time-point
ICSS Thresholds ([7]; MPEP 9 mg/kg before cocaine 10 mg/kg, compared to cocaine-treated rats that received vehicle): significantly elevated in cocaine-treated rats that previously received MPEP (9 mg/kg) compared to cocaine-treated rats that received vehicle injection
ICSS Thresholds ([7]; MPEP 9 mg/kg before cocaine 10 mg/kg, compared to saline-treated rats pretreated with vehicle): still significantly lowered compared to saline-treated rats pretreated with vehicle
magnitude of cocaine-induced lowering of ICSS thresholds ([7]; MPEP 1-9 mg/kg): did not attenuate the magnitude of the lowering in ICSS thresholds observed after systemic cocaine administration
ICSS Thresholds ([7]; MPEP alone, 6 and 9 mg/kg significant): significantly elevated ICSS thresholds
ICSS response Latencies ([7]; MPEP, only the highest dose (9 mg/kg)): significantly increased response latencies
